The results in this text go back to patent publication US11542265B2, “Pyrazolopyrimidine compounds and uses thereof” (Incyte Corporation, priority 2016, dated 2023).

For the assay, the target named is HPK1 (Homo sapiens, UniProt Q92918). Description: HPK1 Kinase Binding Assay. To be noted: LanthaScreen tracer 222, Eu-Anti GST antibody, active HPK1, one hour incubation at 25° C. As for the experimental part:
A stock solution of 1 mM test compound was prepared in DMSO. The compound plate was prepared by 3-fold and 11-point serial dilutions. 0.1 μL of the compound in DMSO was transferred from the compound plate to the white 384 well polystyrene plates. The assay buffer contained 50 mM HEPES, pH 7.5, 0.01% Tween-20, 5 mM MgCl2, 0.01% BSA, and 5 mM DTT. 5 μl of 4 nM active HPK1 (SignalChem M23-11G) prepared in the buffer was added to the plate. The enzyme concentration given was based on the given stock concentration reported by the vender. 5 μl of 18 nM tracer 222 (ThermoFisher PV6121) and 4 nM LanthaScreen Eu-Anti GST antibody (ThermoFisher PV5595) were added. After one hour incubation at 25° C., the plates were read on a PHERAstar FS plate reader (BMG Labtech). Ki values were determined.

Chain of HPK1 (Q92918 whole entry, looked up): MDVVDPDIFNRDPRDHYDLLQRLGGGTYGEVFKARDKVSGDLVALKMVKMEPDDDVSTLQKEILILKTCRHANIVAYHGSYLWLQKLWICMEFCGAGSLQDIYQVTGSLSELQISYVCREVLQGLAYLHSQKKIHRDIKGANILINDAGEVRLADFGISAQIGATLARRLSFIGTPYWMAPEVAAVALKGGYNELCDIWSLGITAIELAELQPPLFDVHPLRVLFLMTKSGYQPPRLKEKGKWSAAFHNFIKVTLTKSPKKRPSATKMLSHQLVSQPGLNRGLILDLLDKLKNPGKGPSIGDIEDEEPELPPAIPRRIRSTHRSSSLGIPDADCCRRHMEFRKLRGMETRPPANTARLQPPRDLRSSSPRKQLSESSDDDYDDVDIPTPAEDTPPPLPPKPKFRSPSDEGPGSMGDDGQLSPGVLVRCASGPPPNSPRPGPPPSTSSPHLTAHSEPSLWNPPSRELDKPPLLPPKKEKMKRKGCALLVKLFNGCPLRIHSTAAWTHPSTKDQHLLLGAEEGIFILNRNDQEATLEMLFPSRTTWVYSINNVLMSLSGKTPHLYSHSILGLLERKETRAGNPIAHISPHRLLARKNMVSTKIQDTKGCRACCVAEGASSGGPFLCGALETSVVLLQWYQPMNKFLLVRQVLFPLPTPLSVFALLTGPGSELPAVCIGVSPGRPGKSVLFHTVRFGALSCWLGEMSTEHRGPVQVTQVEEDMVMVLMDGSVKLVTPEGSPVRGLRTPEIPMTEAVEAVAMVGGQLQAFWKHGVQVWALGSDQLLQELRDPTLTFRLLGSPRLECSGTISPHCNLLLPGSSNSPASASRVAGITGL

Regarding `CN1CCN(c2ncc(-c3n[nH]c4cnc(-c5c(F)cc(CC#N)cc5F)nc34)cn2)CC1` [Example 105, 2-(3,5-Difluoro-4-(3-(2-(4-methylpiperazin-1-yl)pyrimidin-5-yl)-1H-pyrazolo[4,3-d]pyrimidin-5-yl)phenyl)acetonitrile], the Ki was ≤ 100 nM. The value for `CNCc1cc(F)c(-c2ncc3[nH]nc(-c4ccc(N5CCCCC5)nc4)c3n2)c(C(F)(F)F)c1` [Example 76, 1-(3-Fluoro-4-(3-(6-(piperidin-1-yl)pyridin-3-yl)-1H-pyrazolo[4,3-d]pyrimidin-5-yl)-5-(trifluoromethyl)phenyl)-N-methylmethanamine] was ≤ 100 nM. The value for `CNCc1cc(F)c(-c2ncc3[nH]nc(-c4ccc(NC5CCN(S(C)(=O)=O)CC5)cc4)c3n2)c(F)c1` [Example 72, 7V-(4-(5-(2,6-Difluoro-4-((methylamino)methyl)phenyl)-1H-pyrazolo[4,3-d]pyrimidin-3-yl)phenyl)-1-(methylsulfonyl)piperidin-4-amine] was ≤ 100 nM.
